We go through one molecule from article PMC10059083, “Design, Synthesis, and Biological Evaluation of Novel Hydroxamic Acid-Based Organoselenium Hybrids” (Pharmaceuticals, 2023).

Each structure is given as a SMILES string.

One experiment has as its system MCF-7 cells. Put plainly: MTT antiproliferative assay, MCF-7 cells. The class given is cell-based. The source says:
(§1) Recently, OSe agents have attracted interest due to their potential chemoprotective and antitumor properties. […] Therefore, we estimated the OSe agents’ antiproliferative activities against different cancer cells, i.e., MCF-7 and HepG2 cells and healthy lung fibroblast WI-38 cells, using the MTT assay. The drug doxorubicin was employed as the standard. The corresponding therapeutic indices (TI) are described as the proportion of the WI38 cells IC50 to the IC50 of the cancer cell (e.g., MCF-7 and HepG2) (Table 1).
(§2) The products’ anticancer activity was examined using the MTT assay against breast (MCF-7) carcinoma cells, liver (HepG2), and normal WI-38 cells, following the previously reported method. Experimental details can be found in the Supplementary Materials.
(§3) 1.1. The biological assays
(§4) 1.1.1. The anticancer activity
(§5) The breast adenocarcinoma (MCF-7), Hepatocellular carcinoma (HEPG-2), and normal fibroblast (WI-38) cells were obtained from ATCC via Holding company for biological products and vaccines (VACSERA), Cairo, Egypt. The reagents […] medium, MTT, DMSO, and fetal bovine serum was obtained from Sigma Aldrich. Dulbecco’s modified Eagle’s medium was used as the culture medium for the cells, and the cytotoxicity was evaluated using the reported MTT assay. Doxorubicin was used as the positive reference, and the IC50 values were obtained from the corresponding dose-response curve.
(§6) This colorimetric assay is based on converting the yellow tetrazolium bromide (MTT) to a purple formazan derivative by mitochondrial succinate dehydrogenase in viable cells. Cell lines were cultured in […] medium with 10% fetal bovine serum. Antibiotics added were 100 units/ml penicillin and 100µg/ml streptomycin at 37 C in a 5% Co2 incubator. The cell lines were seeded in a 96-well plate at a density of 1.0x10^4 cells/well. at 37 C for 48 h under 5% Co2. After incubation, the cells were treated with different concentrations of compounds and incubated for 13 […]
(§7) Finally, dimethyl sulfoxide (DMSO) in the volume of 100 µl is added to each well to dissolve the purple formazan formed. The colorimetric assay is measured and recorded at an absorbance of 570 […]
(§8) The percentage of the relative cell viability was calculated as (A570 of treated samples/A570 of the untreated sample) X 100. […]
Background: Formazan colour is commonly taken as a measure of viable cells.

Another experiment concerns HepG2 cells. Description: MTT antiproliferative assay, HepG2 cells. The experiment is classed as cell-based.
Source text: Recently, OSe agents have attracted interest due to their potential chemoprotective and antitumor properties. We have developed several OSe compounds with promising antioxidant, antimicrobial, and antitumor properties. Therefore, we estimated the OSe agents’ antiproliferative activities against different cancer cells, i.e., MCF-7 and HepG2 cells and healthy lung fibroblast WI-38 cells, using the MTT assay. The drug doxorubicin was employed as the standard. The corresponding therapeutic indices (TI) are described as the proportion of the WI38 cells IC50 to the IC50 of the cancer cell (e.g., MCF-7 and HepG2) (Table 1).
as §2, §3, §4, §5, §6
Finally, dimethyl sulfoxide (DMSO) in the volume of 100 µl is added to each well to dissolve the purple formazan formed. The colorimetric assay is measured and recorded at an absorbance of 570 nm using a plate reader (EXL 800, USA). The percentage of the relative cell viability was calculated as (A570 of treated samples/A570 of the untreated sample) X 100. […]

The subject of the next experiment is WI-38 cells. Put plainly: MTT cytotoxicity assay, normal lung fibroblast WI-38 cells. The experiment is classed as cell-based. The note with it: Homo sapiens, WI-38, 24 h, read-out: WI38 IC50.
Source text: as §1, §2, §3, §4, §5, §6, §7, §8

Experiment [1] is described as follows: ABTS radical scavenging assay. The method, then:
The antioxidant activities of the OSe compounds were intensively investigated because these are usually the cause of their chemopreventive potency. Their redox activities were evaluated via DPPH and ABTS assays, using ascorbic acid as the standard. We spectrophotometrically measured the antioxidant efficiency of the OSe compounds by their ability to decolorise the DPPH^. and ABTS^. radicals at […] (Figure 2).
The compounds’ antioxidant properties were assessed by in vitro bioassays using DPPH and ABTS, following the reported method. Details are in the Supplementary Materials.
Figure 4 Estimation of the OSe compounds’ redox activities via DPPH and ABTS experiments. All tests are mean ± S.D. ABTS experiment: absorbance was followed at 734 nm for OSe compounds (50 µL, 1 mM in MeOH) and ABTS solution (60 µL). DPPH Absorbance was monitored at 517 nm for OSe compounds (200 µL, 1 mM in MeOH) and DPPH (400 µL) after 30 min. […]
1.1.3.2. The ABTS bioassay
The antioxidant activity of the investigated compounds was assessed using 2,2’-azino-bis(3-ethylbenzothiazoline-6-sulphonic acid (ABTS) method. The radical cation derived from ABTS was prepared by the reaction of 60 mM ABTS solution with 0.3 M manganese dioxide solution in 0.1M phosphate buffer, pH 7. Then, the mixture was shaken, centrifuged, filtered, and the absorbance (Acontrol ) of […]
the resulting green-blue solution (ABTS radical solution) was measured at wavelength 734 nm. Then, […] of 1 mg/ml test compound in phosphate-buffered methanol was added. The absorbance (Atest) was measured. The reduction in color intensity was expressed as % inhibition. The % inhibition for each […]
compound is calculated from the following equation
Inhibition% = (Acontrol-Asample)/(Acontrol)*100
Ascorbic acid (vitamin C) was used as a standard antioxidant (positive control). A blank sample was run […]
without ABTS and using MeOH/phosphate buffer (1:1) instead of the sample. A negative control sample […]
was run with MeOH/phosphate buffer (1:1) instead of a tested compound.

The test system of another experiment is S. aureus. Description: Agar diffusion assay, S. aureus. The experiment is classed as cell-based. The note with it: Staphylococcus aureus; 6-mm disks soaked with 20 μM of the OSe agents; read-out: S. aureus ZID (inhibition zone diameter). (A growth-free zone around the sample is the usual read-out of agar diffusion tests.)

For `Nc1ccc([Se]CC(=O)NOCc2ccccc2)cc1` [Compound 8, 2-((4-Aminophenyl)selanyl)-N-(benzyloxy)acetamide], the half-inhibitory concentration (IC50) with MCF-7 cells (Homo sapiens, MCF7, 24 h, read-out: MCF7 IC50) came to 9.86 ± 0.7 µM; with HepG2 cells (Homo sapiens, HepG2, 24 h, read-out: HepG2 IC50), 7.57 ± 0.5 µM; in the experiment with WI-38 cells it was 27.4 ± 2.1 µM; in experiment [1] (concentration causing 50% decrease in absorbance, ABTS assay), 27.24 ± 0.2 µM. Besides, in the experiment on MCF-7 cells (ratio of IC50 against WI38 cells to IC50 against MCF-7 cells), the “MCF7 TI (therapeutic index)” value is listed as 2.8. In addition, the “HepG2 TI (therapeutic index)” value in the experiment on HepG2 cells (ratio of IC50 against WI38 cells to IC50 against HepG2 cells) was 3.6. For the same molecule, the “antioxidant (scavenging) activity in the ABTS assay” value in experiment [1] (compounds 50 µL, 1 mM in MeOH, ABTS solution 60 µL, absorbance at 734 nm) is listed as 73.9%. In addition, in the experiment with S. aureus, the zone of inhibition at 20 µM amounted to 19 mm.

In general, IC50 refers to the concentration that inhibits the measured activity by half.
